Results reported in US6369049B1, “Treatment of mastitis” (Eli Lilly and Company, priority 1998, dated 2002).
Marks after values point to notes of the source that are not given here.

Legend:
[1] = tested on: Streptococcus uberis 150 L; experiment: MIC vs. Streptococcus uberis 150 L; format: cell-based; parameters: unit not given beside the values; settings: Incubated at 37° C. overnight
Excerpt: (§1) Tables 2 and 2a summarize the minimal inhibitory concentrations (MIC's) at which illustrative formula I compounds and cephalothin inhibit certain microorganisms that are associated with mastitis, such as Staphylococcus aureus 10092 (Newbould strain).

[2] = tested on: Staphylococcus aureus 168H; experiment: MIC vs. Staphylococcus aureus 168H; format: cell-based; parameters: unit not given beside the values; settings: Table 2a
Excerpt: as §1

[3] = tested on: Pasteurella haemolytica 129R (bovine); experiment: MIC vs. Pasteurella haemolytica 129R (bovine); format: cell-based; settings: Incubated at 37° C. overnight
Excerpt: (§2) The formula I compounds are also active against certain Gram-negative species. Tables 3 and 3a show the MIC's of Formula I compounds against certain Gram-negative species.

[4] = tested on: Pasteurella multocida ATCC 12945; experiment: MIC vs. Pasteurella multocida ATCC 12945; format: cell-based; settings: Incubated at 37° C. overnight
Excerpt: as §2

[5] = tested on: Pasteurella multocida 108E (bovine); experiment: MIC vs. Pasteurella multocida 108E (bovine); format: cell-based; settings: Incubated at 37° C. overnight
Excerpt: as §2

[6] = tested on: Streptococcus dysgalactiae 152B; experiment: MIC vs. Streptococcus dysgalactiae 152B; format: cell-based; parameters: unit not given beside the values; settings: Table 2a
Excerpt: as §1

[7] = tested on: Pasteurella multocida 1051 (swine); experiment: MIC vs. Pasteurella multocida 1051 (swine); format: cell-based; settings: Incubated at 37° C. overnight
Excerpt: as §2

[8] = tested on: Pasteurella haemolytica 114F (bovine); experiment: MIC vs. Pasteurella haemolytica 114F (bovine); format: cell-based; settings: Incubated at 37° C. overnight
Excerpt: as §2

[9] = tested on: Salmonella typhimurium; experiment: MIC vs. Salmonella typhimurium; format: cell-based; settings: Incubated at 37° C. overnight
Excerpt: as §2

[10] = tested on: Pasteurella haemolytica 128K (bovine); experiment: MIC vs. Pasteurella haemolytica 128K (bovine); format: cell-based; settings: for MIC vs. Pasteurella haemolytica 128K (bovine): Table 3, incubated at 37° C. overnight; for MIC against Pasteurella haemolytica Strain 128K: Table 3a, incubated at 37° overnight
Excerpt: as §2

[11] = tested on: Streptococcus uberis 166 L; experiment: MIC vs. Streptococcus uberis 166 L; format: cell-based; parameters: unit not given beside the values; settings: Incubated at 37° C. overnight
Excerpt: as §1

[12] = tested on: Streptococcus uberis 167I; experiment: MIC vs. Streptococcus uberis 167I; format: cell-based; parameters: unit not given beside the values; settings: Table 2a
Excerpt: as §1

[13] = tested on: S. aureus 174 C; experiment: MIC vs. S. aureus 174 C; format: cell-based, Staphylococcus aureus; parameters: unit not given beside the values; settings: Incubated at 37° C. overnight
Excerpt: as §1

[14] = tested on: Pasteurella multocida 10,102 (bovine); experiment: MIC vs. Pasteurella multocida 10,102 (bovine); format: cell-based; settings: Incubated at 37° C. overnight
Excerpt: as §2

[15] = tested on: Staphylococcus aureus 170C; experiment: MIC vs. Staphylococcus aureus 170C; format: cell-based; parameters: unit not given beside the values; settings: Table 2a
Excerpt: as §1

[16] = tested on: S. aureus F1C; experiment: MIC vs. S. aureus F1C; format: cell-based, Staphylococcus aureus; parameters: unit not given beside the values; settings: Incubated at 37° C. overnight
Excerpt: as §1

[17] = tested on: Staphylococcus epidermidis 174B; experiment: MIC vs. Staphylococcus epidermidis 174B; format: cell-based; parameters: unit not given beside the values; settings: Table 2a
Excerpt: as §1

[18] = tested on: Streptococcus agalactiae 150G; experiment: MIC vs. Streptococcus agalactiae 150G; format: cell-based; parameters: unit not given beside the values; settings: Table 2a
Excerpt: as §1

[19] = tested on: S. aureus ATCC 29213; experiment: MIC vs. S. aureus ATCC 29213; format: cell-based, Staphylococcus aureus; parameters: unit not given beside the values; settings: Incubated at 37° C. overnight
Excerpt: as §1

[20] = tested on: Staphylococcus aureus 10092 (Newbould strain); experiment: MIC vs. S. aureus 10092 (Newbould strain); format: cell-based; parameters: unit not given beside the values; settings: for MIC vs. Staphylococcus aureus 10,092: Table 2a; for MIC vs. S. aureus 10092: Table 2, incubated at 37° C. overnight
Excerpt: as §1

[21] = tested on: Streptococcus dysgalactiae; experiment: MIC vs. Streptococcus dysgalactiae; format: cell-based; parameters: unit not given beside the values; settings: Incubated at 37° C. overnight
Excerpt: as §1

[22] = tested on: Streptococcus faecalis; experiment: MIC vs. Streptococcus faecalis; format: cell-based; parameters: unit not given beside the values; settings: Table 2a
Excerpt: as §1

[23] = tested on: Escherichia coli; experiment: MIC vs. Escherichia coli; format: cell-based; parameters: unit not given beside the values; settings: Incubated at 37° C. overnight
Excerpt: as §2

[24] = tested on: Streptococcus agalactiae 150 B; experiment: MIC vs. Streptococcus agalactiae 150 B; format: cell-based; parameters: unit not given beside the values; settings: Incubated at 37° C. overnight
Excerpt: as §1

[25] = tested on: Staphylococcus aureus 10092 (Newbould); experiment: Induced Staphylococcus aureus mastitis model in lactating goats; format: in vivo; settings: S. aureus 10092 challenge, in peanut oil
Excerpt: Sixteen lactating goats were selected based on the absence of Staphylococcus aureus in pre-challenge milk cultures. Maintenance ration was provided to the animals throughout the study. The goats were milked twice each day using a portable goat milker.
Milk samples were collected during the morning milking. One day prior to challenge, milk culture samples were collected from each half of the test animals to determine if there was a pre-existing infection. Additionally, a sample was collected from each half for Somatic Cell Count (SCC) determination. A milk culture sample and a sample for SCC were collected from each half 24 hours post-challenge and on Days +4 to +6, +8, +11, +13, and +15.
Udder scoring was performed during each milking using the following table:
General health observations and body temperature were recorded once a day following milking during the challenge and treatment periods.
Milk samples were submitted for analysis for SCC using an electronic somatic cell counting system.
Milk culture samples were assayed for bacterial culture by plating 1.0 mL and 0.1 mL of the milk sample directly onto duplicate blood agar plates. Additionally, dilutions […] the milk sample were plated. Plates were incubated overnight at 37° C.
Staphylococcus aureus 10092 (Newbould) was used as the challenge strain. The challenge culture was grown in Tryptic Soy Broth (TSB) from a lyovial stock overnight (16 hours) at 37° C. TSB (100 mL) was inoculated with 1 mL of the overnight culture and incubated at 37° C. with shaking for 4 hours. The culture was centrifuged at 9000 rpm for 10 minutes at 10° C.; supernatant was removed and the pellet was resuspended in phosphate buffered saline (PBS). Optimum O.D. reading at 650 nm was approximately 0.035. A 10-fold dilution series was prepared with saline to determine the CFU/mL, plating 10^−5, 10^−6, and 10^−7 dilutions onto duplicate blood agar plates. The 10^−7 dilution (approximately 10 CFU/mL) was used for the challenge material, yielding a challenge of 50 CFU/half with a 5-mL infusion.
Sixteen goats were used for the trial. During a one day pre-challenge period, milk samples were collected and temperatures were taken during the morning milking. Milk/udder evaluations were documented during the morning and afternoon milkings.
Staphylococcus aureus 10092 was infused into both halves in each of the goats. The goats were challenged following the morning milking and milked in the afternoon on the day of challenge. The challenge inoculum volume was 5 mL/half containing approximately 50 CFU S. aureus.
For the 24 hr post-challenge period milk samples were collected during the morning milking, and milk/udder evaluations made during the morning and afternoon milking.
Treatment was started at 36 hours post-challenge. Milk samples were collected for culture and SCC 24 hours post-challenge, prior to the morning milking, and the treatment period started following the afternoon milking.
Eight halves (4 goats) each were treated for 2 consecutive milkings 12 hours apart, following milking. […]
Following treatment, the goats were milked and observed for 15 days. Milk samples were collected on Days +4 to +6, +8, +11, +13, and +15 to determine if the infection had cleared.
Establishment of mastitis was determined by bacterial culturing, severity of udder scoring, somatic cell count results, and body temperature.
On Days +2 to +6, milk samples were collected for a colorimetric assay to determine whether the antibiotic was still present in the milk.

[26] = approximately 25 mg/5 mL dose per half, 2 consecutive milkings 12 hours apart

SMILES | MIC vs. Staphylococcus aureus 168H [2] | MIC vs. Streptococcus dysgalactiae 152B [6] | MIC vs. Streptococcus uberis 167I [12] | MIC vs. Staphylococcus aureus 170C [15] | MIC vs. Staphylococcus epidermidis 174B [17] | MIC vs. Streptococcus agalactiae 150G [18] | MIC vs. Staphylococcus aureus 10,092 [20] | MIC vs. Streptococcus faecalis [22] | MIC vs. Streptococcus uberis 150 L [1] | MIC against Pasteurella haemolytica Strain 128K [10] | MIC vs. Streptococcus uberis 166 L [11] | MIC vs. S. aureus 174 C [13] | MIC vs. S. aureus F1C [16] | MIC vs. S. aureus ATCC 29213 [19] | MIC vs. Streptococcus dysgalactiae [21] | MIC vs. Streptococcus agalactiae 150 B [24] | % Bacteriologic Cures [25, 26] [%] | other results
CC(=O)OCC1=C(C(=O)O)N2C(=O)[C@@H](NC(=O)Cc3cccs3)[C@H]2SC1 [Cephalothin, reference compound] | 0.5 | 0.5 | 32 | 0.5 | 0.5 | 0.5 | 0.5 | 16 | 0.125 | 1 | 0.0625 | 0.25 | 0.25 | 0.25 | 0.0625-0.125 | 0.125 | – | MIC vs. Pasteurella haemolytica 129R (bovine) [3]: 1; MIC vs. Pasteurella multocida ATCC 12945 [4]: 0.25; MIC vs. Pasteurella multocida 108E (bovine) [5]: 0.5; MIC vs. Pasteurella multocida 1051 (swine) [7]: 0.25; MIC vs. Pasteurella haemolytica 114F (bovine) [8]: 1; MIC vs. Salmonella typhimurium [9]: 4; MIC vs. Pasteurella haemolytica 128K (bovine) [10]: 0.5; MIC vs. Pasteurella multocida 10,102 (bovine) [14]: 0.5; MIC vs. Escherichia coli [23]: 8
O=C(COc1c(F)c(F)c(F)c(F)c1F)NC1C(=O)N2C(C(=O)O)=C(Cl)CSC12 (stereo not drawn) [Compound 1] | – | – | – | – | – | – | – | – | 0.25 | – | 0.25 | 0.5 | 0.5 | 0.5 | 0.125 | 0.125 | – | MIC vs. Pasteurella haemolytica 129R (bovine) [3]: 4; MIC vs. Pasteurella multocida ATCC 12945 [4]: 0.125; MIC vs. Pasteurella multocida 108E (bovine) [5]: 0.5; MIC vs. Pasteurella multocida 1051 (swine) [7]: 0.5; MIC vs. Pasteurella haemolytica 114F (bovine) [8]: 4; MIC vs. Salmonella typhimurium [9]: >128; MIC vs. Pasteurella haemolytica 128K (bovine) [10]: 4; % Bacteriologic Cures ([25]; dosing was 100 mg/5 mL dose): 75* %; MIC vs. Pasteurella multocida 10,102 (bovine) [14]: 0.5; MIC vs. S. aureus 10092 [20]: 0.25; MIC vs. Escherichia coli [23]: >128
O=C(Cc1c(F)c(F)c(F)c(F)c1F)NC1C(=O)N2C(C(=O)O)=C(Cl)CSC12 (stereo not drawn) [Compound 4] | – | – | – | – | – | – | – | – | 0.5 | – | 0.0156 | 1 | 1 | 1 | 0.0312 | 0.5 | – | MIC vs. S. aureus 10092 [20]: 0.5
O=C(COc1c(F)cc(F)cc1F)NC1C(=O)N2C(C(=O)O)=C(Cl)CSC12 (stereo not drawn) [Compound 5] | 2 | 0.5 | 16 | 4 | 1 | 1 | 1 | 16 | – | 16 | – | – | – | – | – | – | 100 | –
O=C(COc1c(F)c(F)c(C(F)(F)F)c(F)c1F)NC1C(=O)N2C(C(=O)O)=C(Cl)CSC12 (stereo not drawn) [Compound 10] | – | – | – | – | – | – | – | – | – | – | – | – | – | – | – | – | 57 | –

More lines, main results first:

MIC vs. Staphylococcus aureus 168H [2] | MIC vs. Streptococcus dysgalactiae 152B [6] | MIC vs. Streptococcus uberis 167I [12] | MIC vs. Staphylococcus aureus 170C [15] | MIC vs. Staphylococcus epidermidis 174B [17] | MIC vs. Streptococcus agalactiae 150G [18] | MIC vs. Staphylococcus aureus 10,092 [20] | MIC vs. Streptococcus faecalis [22] | SMILES | MIC vs. Streptococcus uberis 150 L [1] | MIC against Pasteurella haemolytica Strain 128K [10] | MIC vs. Streptococcus uberis 166 L [11] | MIC vs. S. aureus 174 C [13] | MIC vs. S. aureus F1C [16] | MIC vs. S. aureus ATCC 29213 [19] | MIC vs. Streptococcus dysgalactiae [21] | MIC vs. Streptococcus agalactiae 150 B [24] | % Bacteriologic Cures [25, 26] [%] | other results
2 | 0.25 | 32 | 4 | 0.5 | 0.5 | 0.5 | 32 | O=C(COc1cc(F)cc(F)c1)NC1C(=O)N2C(C(=O)O)=C(Cl)CSC12 (stereo not drawn) [Compound 6] | – | 4 | – | – | – | – | – | – | 75 | –
16 | 2 | 128 | 1 | 2 | 2 | 4 | >128 | O=C(COc1c(F)c(F)c(F)c(F)c1F)NC1C(=O)N2C(C(=O)O)=C(Cl)CCC12 (stereo not drawn) [Compound 7] | – | 32 | – | – | – | – | – | – | 13 | –
1 | 0.5 | 128 | <0.125 | 1 | 1 | 1 | 64 | O=C(COc1ccc(OC(F)(F)F)cc1)NC1C(=O)N2C(C(=O)O)=C(Cl)CSC12 (stereo not drawn) [Compound 8] | – | 32 | – | – | – | – | – | – | 50 | –
0.5 | 0.5 | 4 | 0.5 | 0.5 | 0.5 | 0.5 | 8 | O=C(CSc1c(F)c(F)c(F)c(F)c1F)NC1C(=O)N2C(C(=O)O)=C(Cl)CSC12 (stereo not drawn) [Compound 9] | – | 4 | – | – | – | – | – | – | 63 | –
